The species entered for assay [1] is Homo sapiens. Nature of the assay: Selectivity ratio of IC50 for human alpha4beta2 nAChR to IC50 for human alpha7 nAChR.
Assay [2] has as its target T1, Neuronal acetylcholine receptor; alpha4/beta2 (Homo sapiens, UniProt P17787+P43681). Nature of the assay: Antagonist activity at human alpha4beta2 nAChR expressed in HEK293 cells assessed as (+/-)-epibatidine-induced Ca2+ influx. The assay is classed as cell-based.
Assay [3] addresses T2, Neuronal acetylcholine receptor subunit alpha-7 (Homo sapiens, UniProt P36544). Nature of the assay: Antagonist activity at human alpha7 nAChR expressed in rat GH3 cells assessed as (+/-)-epibatidine-induced Ca2+ influx. In kind it is cell-based.
Assay [4] deals with T1, Neuronal acetylcholine receptor; alpha4/beta2. Nature of the assay: Displacement of [3H]cytisine from human alpha4beta2 nAChR. The assay is classed as protein-complex assay. (In general: Displacement assays read how much labelled ligand stays bound in the presence of the test substance.)
Assay [5] has as its target T2, Neuronal acetylcholine receptor subunit alpha-7. Nature of the assay: Displacement of [3H]imipramine from human alpha7 nAChR.
For assay [6] the target is unchanged. Nature of the assay: Displacement of [3H]MLA from human alpha7 nAChR.
For assay [7], the target named is T1, Neuronal acetylcholine receptor; alpha4/beta2. Nature of the assay: Displacement of [3H]imipramine from human alpha4beta2 nAChR. In kind it is protein-complex assay.

Among the data in ChEMBL document CHEMBL3132822, “Novel 1-(1-benzyl-1H-indol-3-yl)-N,N,N-trimethylmethanaminium iodides are competitive antagonists for the human 42 and 7 nicotinic acetylcholine receptors” (Medchemcomm, 2013) are Ratio IC50, IC50 and Ki values, retold here.

The structures appear in SMILES notation.

T2 sequence (P36544 whole entry): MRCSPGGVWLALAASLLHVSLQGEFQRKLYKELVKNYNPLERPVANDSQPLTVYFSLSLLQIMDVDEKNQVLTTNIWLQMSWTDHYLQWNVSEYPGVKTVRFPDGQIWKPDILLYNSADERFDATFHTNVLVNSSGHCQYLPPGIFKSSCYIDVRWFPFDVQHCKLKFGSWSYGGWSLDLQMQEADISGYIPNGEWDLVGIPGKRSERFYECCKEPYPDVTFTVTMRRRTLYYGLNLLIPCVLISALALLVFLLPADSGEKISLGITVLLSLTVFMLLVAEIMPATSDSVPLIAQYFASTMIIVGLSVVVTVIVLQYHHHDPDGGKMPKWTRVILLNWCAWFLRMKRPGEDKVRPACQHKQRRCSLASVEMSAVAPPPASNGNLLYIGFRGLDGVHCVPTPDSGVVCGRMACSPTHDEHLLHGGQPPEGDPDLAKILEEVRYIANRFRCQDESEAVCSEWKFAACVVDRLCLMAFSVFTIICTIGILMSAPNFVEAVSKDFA
T1 sequence (P17787 whole entry): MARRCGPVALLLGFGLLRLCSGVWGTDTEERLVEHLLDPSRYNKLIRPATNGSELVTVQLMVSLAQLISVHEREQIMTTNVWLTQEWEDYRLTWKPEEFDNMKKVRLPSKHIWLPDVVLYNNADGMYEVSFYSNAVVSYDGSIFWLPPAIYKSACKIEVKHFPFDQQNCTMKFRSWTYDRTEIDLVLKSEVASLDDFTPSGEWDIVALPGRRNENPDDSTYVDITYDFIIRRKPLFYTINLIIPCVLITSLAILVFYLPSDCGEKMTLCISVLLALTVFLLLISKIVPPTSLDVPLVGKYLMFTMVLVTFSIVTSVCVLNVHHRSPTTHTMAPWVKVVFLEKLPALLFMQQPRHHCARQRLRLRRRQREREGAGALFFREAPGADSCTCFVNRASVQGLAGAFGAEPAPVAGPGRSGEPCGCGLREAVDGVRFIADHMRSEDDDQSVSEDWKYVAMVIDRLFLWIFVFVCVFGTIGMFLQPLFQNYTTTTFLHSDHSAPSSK
T1 sequence (P43681 whole entry): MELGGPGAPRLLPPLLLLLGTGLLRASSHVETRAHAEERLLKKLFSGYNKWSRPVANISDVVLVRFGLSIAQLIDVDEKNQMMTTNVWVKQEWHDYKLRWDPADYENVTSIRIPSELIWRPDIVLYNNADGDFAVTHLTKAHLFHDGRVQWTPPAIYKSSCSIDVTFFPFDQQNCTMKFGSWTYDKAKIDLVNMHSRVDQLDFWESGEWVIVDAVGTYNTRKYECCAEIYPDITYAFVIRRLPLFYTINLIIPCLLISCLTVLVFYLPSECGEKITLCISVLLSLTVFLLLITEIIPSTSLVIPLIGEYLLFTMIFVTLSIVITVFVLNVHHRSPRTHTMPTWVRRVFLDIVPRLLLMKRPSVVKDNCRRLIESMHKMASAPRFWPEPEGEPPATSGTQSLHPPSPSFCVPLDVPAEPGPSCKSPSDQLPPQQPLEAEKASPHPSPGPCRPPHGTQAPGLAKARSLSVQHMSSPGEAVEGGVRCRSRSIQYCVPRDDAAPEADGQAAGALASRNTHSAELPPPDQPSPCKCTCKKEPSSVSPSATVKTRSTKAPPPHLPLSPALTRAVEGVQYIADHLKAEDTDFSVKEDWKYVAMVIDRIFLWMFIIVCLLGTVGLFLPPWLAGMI

Take `COc1ccc(Cn2cc(C[N+](C)(C)C)c3ccccc32)cc1O`: the Ratio IC50 in assay [1] was determined as 2.8. Besides, the IC50 in assay [2] was 9.5 µM; in assay [3], 3.4 µM.

Take `C[N+](C)(C)Cc1cn(Cc2ccc([N+](C)(C)C)cc2)c2ccccc12`: the Ratio IC50 in assay [1] is 7.4. The values for the IC50 in assay [2] and in assay [3] were 20 µM and 2.7 µM, respectively.

On to `C[N+](C)(C)Cc1cn(Cc2ccccc2)c2ccccc12`, for which the Ratio IC50 in assay [1] was 1.9. The IC50 in assay [2] stood at 4.2 µM; in assay [3], 2.3 µM.

Take `C[N+](C)(C)Cc1cn(Cc2cccc(O)c2)c2ccccc12`: in assay [1], the Ratio IC50 came out at 14.7. In addition, the Ki in assay [4] was 1.6 µM; in assay [5], 145 µM; in assay [6], 0.6 µM; in assay [7], 112 µM. Besides, the IC50 in assay [2] worked out at 14.7 µM; in assay [3] it was 1 µM.

In the case of `COc1ccc(Cn2cc(C[N+](C)(C)C)c3ccccc32)cc1`, in assay [1], the Ratio IC50 was found to be 2.2. The 50% inhibitory concentration (IC50) in assay [2] came out at 4.4 µM; in assay [3], 2 µM.

As to `C[n+]1cccc(Cn2cc(C[N+](C)(C)C)c3ccccc32)c1`, the figures for the IC50 in assay [2] and in assay [3] were above 100 µM and 41.3 µM, respectively.

Turning to `COc1ccc(Cn2cc(C[N+](C)(C)C)c3ccccc32)cc1OC`, the Ratio IC50 in assay [1] is 6.7. The IC50 was 14.8 µM in assay [2] and 2.2 µM in assay [3].

On to `COc1cc(Cn2cc(C[N+](C)(C)C)c3ccccc32)ccc1O`, for which the Ratio IC50 in assay [1] stood at 4.1. The IC50 in assay [2] turned out to be 9.1 µM; in assay [3] it was 2.2 µM.

In the case of `C[N+](C)(C)Cc1cn(Cc2ccc(O)cc2)c2ccccc12`, the Ratio IC50 in assay [1] is 11.3. For the same compound, the Ki in assay [4] was determined as 0.6 µM; in assay [6], 2.9 µM. The IC50 in assay [2] is 24.9 µM; in assay [3] it was 2.2 µM.

Take `C[N+](C)(C)Cc1cn(Cc2ccc3c(c2)OCO3)c2ccccc12`: in assay [1], the Ratio IC50 was found to be 3. For the same compound, the IC50 turned out to be 3.9 µM in assay [2] and 1.3 µM in assay [3].

Usually IC50 stands for the concentration that inhibits the measured activity by half. As usually defined, the Ki is a measure of affinity in units of concentration, obtained from inhibition or displacement.
